Reference: patent publication US20060025394A1, “Estradiol-related compounds and methods of use as anti-tumor agents” (priority 2003, published 2006)
“Also recorded” adds a separate entry of the source.

Legend:
[1] = test system: MCF-7; assay: MTS cell viability assay in MCF-7; format: cell-based; details: MCF-7, data not shown
Description: DU145, LNCaP, PC3, and MCF-7 cells were obtained from the American Type Culture Collection (Manassas, Va.). DU145, PC3, and MCF-7 cells were maintained in Dulbecco's modified Eagle's medium/F-12 supplemented with 5% heat inactivated Fetal Calf Serum and Penicillin/Streptomycin (Invitrogen Life Technologies, Carlsbad, Calif.). LNCaP cells were maintained in RPMI 1640 medium supplemented in the same fashion. Cells were cultured in 75 cm^2 flasks (Falcon, BD Biosciences, Bedford, Mass.) at 37° C. and 5% CO2. […]
Cell viability assays were carried out with five logs of concentration between 0.1 nM and […] for APVE2, including controls in three prostate cancer cell lines (DU145, LNCaP, and PC3, and in a breast cancer cell line (MCF-7). Upon completing five days of treatment, the medium in each well was exchanged for 400 μL of an MTS solution (3-(4,5-dimethylthiazol-2-yl)-5-(3-carboxymethoxyphenyl)-2-(4-sulfophenyl)-2H-tetrazolium, inner salt; O'Toole SA, 2003, Cancer Detect Prev., 2003;27(1):47-54) spiked into media as per the manufacture's instructions (Promega, Madison, Wis.) and incubated for 2 hours at 37° C. before reading the absorbance on the μQuant UV/VIS plate reader, in conjunction with KCjunior Software (Bio-Tek Instruments, Winooski, Vt.) set at 490 nm. […] EC50 values were calculated with GraphPad Prism software (GraphPad Software Inc., San Diego, Calif.).

[2] = target: T1, ER-β (Homo sapiens, UniProt Q92731); assay: Estrogen receptor relative binding affinity assay, fluorescence polarization, ER-β
T1 construct: purchased Pan Vera, Madison, Wis
Description: All assays were carried out as per the manufacture's instructions with the following modifications.

[3] = test system: DU145 cells; assay: Flow cytometry cell cycle analysis; format: cell-based; details: 16 nM
Description: The cells were trypsinized for five minutes, scraped, washed in serum containing media, centrifuged at 300 rpm for 10 minutes, and fixed in ice-cold 70% ethanol for 24 hours at −20° C. The cells were again pelleted and resuspended in buffer containing nine parts 0.05M Na2HPO4 and one part 25 mM citric acid with 0.1% Triton X-100 (pH 7.8) for 2 hours. Cells were pelleted, resuspended in a buffer ([…], 0.1 N NaCl, 2 mM MgCl2, and 0.1% Triton X-100) containing 20 μg PI and 50 μg/ml RNAse (pH 6.8), and incubated in the dark at room temperature for 30 minutes. Cell cycle distribution and DNA content analysis were assayed according to standard methods with a FACS sorter, FACScan™ flow cytometer (Becton Dickinson, Mountain View, Calif.), and analyzed by the Cell Cycle Multi-Cycle system (Phoenix Flow System, San Diego, Calif.). Approximately 15,000 single events were collected, and cell-cycle distribution was determined using Modfit LT version 2 software (Verity House, Inc., Topsham, Me.). All analyses were carried out in quadruplicate.

[4] = test system: MCF-7; assay: Cytotoxicity testing (Example 7), MTS, MCF-7; format: cell-based; details: Table 3, five days, 1 mM of each compound, defined media
Description: (§1) Cytotoxicity Studies were done in DU-145 and MCF-7 Cells. […] We set out to test the efficacy of these compounds based on known affinities for ER-α previously reported. Cells were treated for five days with 1 mM of each compound in a defined media. Cell number was estimated by the MTS method. Similar studies were carried out in the MCF-7 cell line known to express both ER-α and -β, and display proliferative properties in the presence of classic estrogens.

[5] = test system: DU-145; assay: Cytotoxicity testing (Example 7), MTS, DU-145; format: cell-based; details: Table 3; five days, 1 mM of each compound, defined media, MTS
Description: as §1

T1 sequence (Q92731 whole entry): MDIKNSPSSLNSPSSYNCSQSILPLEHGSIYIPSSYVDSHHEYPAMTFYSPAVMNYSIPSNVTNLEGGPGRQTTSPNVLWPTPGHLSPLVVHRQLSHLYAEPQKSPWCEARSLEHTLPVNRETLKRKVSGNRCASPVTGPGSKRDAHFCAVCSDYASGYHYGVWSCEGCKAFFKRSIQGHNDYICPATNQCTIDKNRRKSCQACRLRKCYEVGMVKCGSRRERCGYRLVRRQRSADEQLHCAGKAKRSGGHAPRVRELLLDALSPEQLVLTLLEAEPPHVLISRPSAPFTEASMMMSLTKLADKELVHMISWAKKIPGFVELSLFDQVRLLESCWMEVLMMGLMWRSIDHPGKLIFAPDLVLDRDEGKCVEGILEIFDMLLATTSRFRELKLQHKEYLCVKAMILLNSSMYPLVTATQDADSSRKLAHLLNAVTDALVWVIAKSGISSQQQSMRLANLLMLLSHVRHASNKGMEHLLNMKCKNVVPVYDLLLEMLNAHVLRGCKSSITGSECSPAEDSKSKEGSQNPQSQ

In the case of C[C@]12CC[C@@H]3c4ccc(O)cc4CC[C@H]3[C@@H]1CC[C@@]2(O)/C=C\c1ccc(N)cc1 [APVE2, 17α-20Z-21-[(4-amino)phenyl]-19-norpregna-1,3,5(10),20-tetraene-3,17β-diol], the cell death [1] is reported as “did induce cell death”, the “proliferation / growth response” value [1] is reported as “no growth response; also recorded: did not cause an increase in proliferation” and the “preference for ER-β over ER-α” value [2] is reported as 7 fold. For the same compound, the EC50 ([2]; fluorescence polarization, 25° C., 2 hours) was 0.25 µM, the “ER-β % RBA” value ([2]; ratio of EC50 values as compared to E2) was 6.2% and the ER-α/ER-β ([2]; ratio of RBAs) was 0.14. For the same compound, the “increase in G2/M accumulation” value [3] was “over 4 fold”, the “G1/G0 phase, compared to non-treated controls” value ([3]; day 2-3) was 135% and the “G2/M, compared to non-treated controls” value ([3]; day 3) was “no change”. For the same compound, the “S phase, decrease to, compared to non-treated controls” value ([3]; day 3) was 32%, the “G1/G0, decrease to, over non-treated controls” value ([3]; day 4) was 48% and the “S phase, over non-treated controls” value ([3]; day 4) was 73%. For the same compound, the “G2/M arrest, over non-treated controls” value ([3]; day 4-5) was 420%, the “loss of G1” value ([3]; four to five days) was “over 48%” and the “loss in S phase” value ([3]; second and third day) was “up to 68%”. For the same compound, the “MCF-7 % Cell#” value [4] was 25% and the “DU145 % Cell#” value [5] was 10%.
